Patent US9550772B2, “Azaindole derivatives as multi kinase inhibitors” (ORIBASE PHARMA, priority 2012, dated 2017)
Where two headings read alike, the source gives them in different places.

Tests used:
BRAF = target: T1, BRAF (Homo sapiens, UniProt P15056); experiment: In vitro kinase assay (Z'-LYTE, Invitrogen); assay type: biochemical; settings: compound at 100 nM, ATP Km apparent, read-out: % of inhibition of the kinase compared to the control
T1 construct: purchased Invitrogen
Protocol: (§1) The inhibitory activity of the compounds on 7 kinases (BRAF, EGFR (ErbB1), EGFR (ErbB1) T790M L858R, FGFR2, KDR (VEGFR2), PDGFRA (PDGFR alpha), SRC) was evaluated by Invitrogen using the Z′-LYTE® technology. Briefly, the Z′-LYTE® biochemical assay employs a fluorescence-based, coupled-enzyme format and is based on the differential sensitivity of phosphorylated and non-phosphorylated peptides to proteolytic cleavage. The peptide substrate is labeled with two fluorophores—one at each end—that make up a FRET pair. A ratiometric method, which calculates the ratio (the Emission Ratio) of donor emission to acceptor emission after excitation of the donor fluorophore at 400 nm, is used to quantitate reaction progress.
(§2) The compounds are screened in 1% DMSO (final) in the well. For 10 point titrations, 3-fold serial dilutions are conducted from the starting concentration. All Peptide/Kinase Mixtures are diluted to a 2× working concentration in the appropriate Kinase Buffer. All ATP Solutions are diluted to a 4× working concentration in Kinase Buffer (50 mM HEPES pH 7.5, 0.01% BRIJ-35, 10 mM MgCl2, 1 mM EGTA). ATP Km apparent is previously determined using a Z′-LYTE® assay.
(§3) Each compound was incubated at a concentration of 100 nM and the tables 21 to 27 summarize the results obtained showing the inhibitory power of a compound.

EGFR (ErbB1) = target: T2, EGFR (ErbB1) (Homo sapiens, UniProt P00533); experiment: In vitro kinase assay (Z'-LYTE, Invitrogen); assay type: biochemical; settings: compound at 100 nM, ATP Km apparent, read-out: % of inhibition of the kinase compared to the control
T2 construct: purchased Invitrogen
T2 sequence (P00533 25-1210): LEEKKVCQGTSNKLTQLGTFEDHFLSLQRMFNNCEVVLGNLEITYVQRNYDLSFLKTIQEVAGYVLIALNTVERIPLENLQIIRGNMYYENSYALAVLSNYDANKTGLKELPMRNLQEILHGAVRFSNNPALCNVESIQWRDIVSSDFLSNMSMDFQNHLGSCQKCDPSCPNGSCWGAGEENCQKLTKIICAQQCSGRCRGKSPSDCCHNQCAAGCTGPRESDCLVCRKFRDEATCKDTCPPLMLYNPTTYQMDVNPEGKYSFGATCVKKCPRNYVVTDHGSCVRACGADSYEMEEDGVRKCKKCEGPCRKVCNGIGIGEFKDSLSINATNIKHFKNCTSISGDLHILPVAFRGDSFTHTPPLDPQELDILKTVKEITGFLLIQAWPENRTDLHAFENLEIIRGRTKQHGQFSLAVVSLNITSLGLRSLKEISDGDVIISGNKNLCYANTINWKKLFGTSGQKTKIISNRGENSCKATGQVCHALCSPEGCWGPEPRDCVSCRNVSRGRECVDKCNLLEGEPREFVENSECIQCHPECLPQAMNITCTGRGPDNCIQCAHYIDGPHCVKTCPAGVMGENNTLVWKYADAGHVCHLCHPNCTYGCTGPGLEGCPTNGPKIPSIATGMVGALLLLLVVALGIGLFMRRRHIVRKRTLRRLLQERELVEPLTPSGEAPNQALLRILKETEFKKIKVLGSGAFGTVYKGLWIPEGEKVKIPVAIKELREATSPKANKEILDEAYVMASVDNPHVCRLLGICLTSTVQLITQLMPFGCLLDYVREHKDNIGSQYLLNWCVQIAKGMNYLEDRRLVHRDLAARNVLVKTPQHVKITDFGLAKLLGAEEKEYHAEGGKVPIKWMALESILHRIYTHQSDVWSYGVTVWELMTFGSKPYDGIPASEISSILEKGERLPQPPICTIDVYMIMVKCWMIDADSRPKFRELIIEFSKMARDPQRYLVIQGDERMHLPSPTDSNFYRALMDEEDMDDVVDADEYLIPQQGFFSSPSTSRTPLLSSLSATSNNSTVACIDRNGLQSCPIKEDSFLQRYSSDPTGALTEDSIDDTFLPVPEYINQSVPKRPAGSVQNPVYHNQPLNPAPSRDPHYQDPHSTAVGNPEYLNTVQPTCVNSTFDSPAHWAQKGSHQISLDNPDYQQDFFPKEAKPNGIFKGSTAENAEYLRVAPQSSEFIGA
Protocol: as §1, §2, §3

FGFR2 = target: T3, FGFR2 (Homo sapiens, UniProt P21802); experiment: In vitro kinase assay (Z'-LYTE, Invitrogen); assay type: biochemical; settings: compound at 100 nM, ATP Km apparent, read-out: % of inhibition of the kinase compared to the control
T3 construct: purchased Invitrogen
T3 sequence (P21802 22-821): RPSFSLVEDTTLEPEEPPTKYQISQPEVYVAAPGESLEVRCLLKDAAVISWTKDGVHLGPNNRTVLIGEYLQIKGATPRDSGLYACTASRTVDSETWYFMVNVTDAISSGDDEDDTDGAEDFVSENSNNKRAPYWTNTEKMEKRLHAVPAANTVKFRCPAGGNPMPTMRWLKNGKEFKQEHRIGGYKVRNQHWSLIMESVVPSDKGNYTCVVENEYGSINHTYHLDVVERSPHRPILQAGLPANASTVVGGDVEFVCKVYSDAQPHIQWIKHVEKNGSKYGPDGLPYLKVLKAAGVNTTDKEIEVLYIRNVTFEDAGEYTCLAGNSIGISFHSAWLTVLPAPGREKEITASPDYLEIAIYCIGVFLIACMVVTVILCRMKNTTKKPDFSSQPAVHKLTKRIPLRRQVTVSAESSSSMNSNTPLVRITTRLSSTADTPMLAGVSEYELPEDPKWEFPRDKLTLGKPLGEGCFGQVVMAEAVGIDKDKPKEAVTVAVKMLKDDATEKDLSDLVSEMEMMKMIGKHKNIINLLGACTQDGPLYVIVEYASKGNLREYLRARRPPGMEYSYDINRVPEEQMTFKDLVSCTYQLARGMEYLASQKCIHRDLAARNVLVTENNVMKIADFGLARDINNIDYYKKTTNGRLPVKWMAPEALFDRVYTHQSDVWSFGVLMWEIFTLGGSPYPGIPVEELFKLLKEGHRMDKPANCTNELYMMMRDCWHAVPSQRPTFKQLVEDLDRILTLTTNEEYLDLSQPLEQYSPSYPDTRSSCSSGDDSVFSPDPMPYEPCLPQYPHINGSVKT
Protocol: as §1, §2, §3

KDR (VEGFR2) = target: T4, KDR (VEGFR2) (Homo sapiens, UniProt P35968); experiment: In vitro kinase assay (Z'-LYTE, Invitrogen); assay type: biochemical; settings: compound at 100 nM, ATP Km apparent, read-out: % of inhibition of the kinase compared to the control
T4 construct: purchased Invitrogen
T4 sequence (P35968 20-1356): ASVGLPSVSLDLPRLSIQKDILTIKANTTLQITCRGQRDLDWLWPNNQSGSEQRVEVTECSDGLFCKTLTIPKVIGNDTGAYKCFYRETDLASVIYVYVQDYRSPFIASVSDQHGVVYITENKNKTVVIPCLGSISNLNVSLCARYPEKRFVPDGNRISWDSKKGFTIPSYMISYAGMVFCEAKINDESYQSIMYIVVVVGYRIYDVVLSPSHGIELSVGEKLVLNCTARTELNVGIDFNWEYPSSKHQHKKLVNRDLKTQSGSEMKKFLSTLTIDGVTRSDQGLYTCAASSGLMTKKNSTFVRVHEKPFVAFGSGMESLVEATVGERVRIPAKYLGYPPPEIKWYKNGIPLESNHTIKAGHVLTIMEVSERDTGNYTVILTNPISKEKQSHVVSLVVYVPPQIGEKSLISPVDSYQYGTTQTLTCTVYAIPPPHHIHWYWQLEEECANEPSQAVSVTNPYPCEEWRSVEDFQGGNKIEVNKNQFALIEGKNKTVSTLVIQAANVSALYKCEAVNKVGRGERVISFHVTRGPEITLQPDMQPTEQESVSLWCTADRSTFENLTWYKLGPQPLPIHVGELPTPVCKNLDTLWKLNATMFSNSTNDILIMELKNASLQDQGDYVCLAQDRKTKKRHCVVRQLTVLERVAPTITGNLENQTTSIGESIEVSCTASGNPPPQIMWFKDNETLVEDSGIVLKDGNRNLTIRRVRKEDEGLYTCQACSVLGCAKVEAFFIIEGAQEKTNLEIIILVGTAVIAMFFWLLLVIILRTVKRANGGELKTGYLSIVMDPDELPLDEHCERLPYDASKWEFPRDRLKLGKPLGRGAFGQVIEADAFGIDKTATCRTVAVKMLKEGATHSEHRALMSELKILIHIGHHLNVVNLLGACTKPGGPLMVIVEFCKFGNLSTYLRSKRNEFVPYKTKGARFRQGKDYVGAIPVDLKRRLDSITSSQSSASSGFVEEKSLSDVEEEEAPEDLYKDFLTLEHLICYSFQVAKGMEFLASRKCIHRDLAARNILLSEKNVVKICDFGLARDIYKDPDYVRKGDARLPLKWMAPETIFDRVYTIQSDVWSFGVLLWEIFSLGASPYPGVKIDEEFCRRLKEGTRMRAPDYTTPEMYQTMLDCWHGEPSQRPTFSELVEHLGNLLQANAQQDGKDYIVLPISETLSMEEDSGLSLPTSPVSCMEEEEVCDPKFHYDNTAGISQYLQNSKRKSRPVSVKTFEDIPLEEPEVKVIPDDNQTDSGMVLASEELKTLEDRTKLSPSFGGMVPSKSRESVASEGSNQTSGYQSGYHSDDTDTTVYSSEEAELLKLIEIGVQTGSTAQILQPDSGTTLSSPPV
Protocol: as §1, §2, §3

A549 cell line = experiment: In vitro cell proliferation assay (MTT); assay type: cell-based; settings: Homo sapiens, A549, 72 h, EC50 ≧ 1 μM, read-out: EC50, anti-proliferative activity
Protocol: (§4) Cancer cell lines (5×10^3 cells per well) or HUVEC (1×10^4 cells per well) or HRMEC (1×10^4 cells per well) were distributed in 96-well plates and incubating in duplicate with escalating concentrations (10 nM to 3 μM) of compounds for 72 hr. Cell proliferation was measured using MTT (3[4,5-dimethylthiazol-2-yl]-2,5-diphenyltetrazolium bromide). The EC50 values were calculated from sigmoidal dose-response curves utilizing Prism 5.0 from Graph-Pad Software (GraphPad Software, La Jolla, Calif., USA), with values normalized to those of DMSO-treated control wells (0%) and 1% SDS control wells (100%).

HUVEC cells = experiment: In vitro cell proliferation assay (MTT); assay type: cell-based; settings: Homo sapiens, 72 hr, read-out: EC50, anti-proliferative activity
Protocol: as §4

HeLa cell line = experiment: In vitro cell proliferation assay (MTT); assay type: cell-based; settings: Homo sapiens, 72 hr, read-out: EC50, anti-proliferative activity
Protocol: as §4

HepG2 cell line = experiment: In vitro cell proliferation assay (MTT); assay type: cell-based; settings: Homo sapiens, HepG2, 72 hr, read-out: EC50, anti-proliferative activity
Protocol: as §4

MDA-MB-231 cell line = experiment: In vitro cell proliferation assay (MTT); assay type: cell-based; settings: Homo sapiens, MDA-MB-231, 72 hr, EC50 ≧ 1 μM, read-out: EC50, anti-proliferative activity
Protocol: as §4

PDGFRA (PDGFR alpha) = target: T5, PDGFRA (PDGFR alpha) (Homo sapiens, UniProt P16234); experiment: In vitro kinase assay (Z'-LYTE, Invitrogen); assay type: biochemical; settings: compound at 100 nM, ATP Km apparent, read-out: % of inhibition of the kinase compared to the control
T5 construct: purchased Invitrogen
T5 sequence (P16234 24-1089): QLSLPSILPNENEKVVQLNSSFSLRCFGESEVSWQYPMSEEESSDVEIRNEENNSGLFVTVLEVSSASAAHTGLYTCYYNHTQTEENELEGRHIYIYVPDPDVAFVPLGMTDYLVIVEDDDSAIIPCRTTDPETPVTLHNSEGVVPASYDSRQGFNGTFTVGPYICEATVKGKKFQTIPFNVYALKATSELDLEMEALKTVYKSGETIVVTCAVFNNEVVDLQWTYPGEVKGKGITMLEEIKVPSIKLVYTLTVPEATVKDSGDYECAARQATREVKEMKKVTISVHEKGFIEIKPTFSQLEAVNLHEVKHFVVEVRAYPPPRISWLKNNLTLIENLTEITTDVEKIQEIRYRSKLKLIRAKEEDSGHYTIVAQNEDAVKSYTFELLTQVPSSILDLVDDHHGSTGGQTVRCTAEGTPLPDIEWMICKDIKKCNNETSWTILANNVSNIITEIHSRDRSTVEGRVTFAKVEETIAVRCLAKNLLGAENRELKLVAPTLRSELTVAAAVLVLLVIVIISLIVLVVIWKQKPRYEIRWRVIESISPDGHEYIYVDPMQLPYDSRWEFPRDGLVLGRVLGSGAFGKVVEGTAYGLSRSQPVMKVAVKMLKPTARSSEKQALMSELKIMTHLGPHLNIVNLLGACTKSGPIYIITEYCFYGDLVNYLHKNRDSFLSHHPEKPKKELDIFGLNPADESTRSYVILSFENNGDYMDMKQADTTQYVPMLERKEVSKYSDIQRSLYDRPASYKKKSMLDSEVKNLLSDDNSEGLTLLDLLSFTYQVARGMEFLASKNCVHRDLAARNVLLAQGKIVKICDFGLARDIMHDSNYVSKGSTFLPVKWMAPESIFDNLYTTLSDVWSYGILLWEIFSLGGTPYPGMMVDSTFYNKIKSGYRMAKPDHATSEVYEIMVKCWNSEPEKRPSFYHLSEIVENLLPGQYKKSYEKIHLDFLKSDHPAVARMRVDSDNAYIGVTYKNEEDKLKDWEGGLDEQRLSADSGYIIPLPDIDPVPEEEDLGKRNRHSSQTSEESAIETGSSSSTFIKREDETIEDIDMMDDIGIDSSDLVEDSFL
Protocol: as §1, §2, §3

SRC = target: T6, SRC (Homo sapiens, UniProt P12931); experiment: In vitro kinase assay (Z'-LYTE, Invitrogen); assay type: biochemical; settings: compound at 100 nM, ATP Km apparent, read-out: % of inhibition of the kinase compared to the control
T6 construct: purchased Invitrogen
T6 sequence (P12931 whole entry): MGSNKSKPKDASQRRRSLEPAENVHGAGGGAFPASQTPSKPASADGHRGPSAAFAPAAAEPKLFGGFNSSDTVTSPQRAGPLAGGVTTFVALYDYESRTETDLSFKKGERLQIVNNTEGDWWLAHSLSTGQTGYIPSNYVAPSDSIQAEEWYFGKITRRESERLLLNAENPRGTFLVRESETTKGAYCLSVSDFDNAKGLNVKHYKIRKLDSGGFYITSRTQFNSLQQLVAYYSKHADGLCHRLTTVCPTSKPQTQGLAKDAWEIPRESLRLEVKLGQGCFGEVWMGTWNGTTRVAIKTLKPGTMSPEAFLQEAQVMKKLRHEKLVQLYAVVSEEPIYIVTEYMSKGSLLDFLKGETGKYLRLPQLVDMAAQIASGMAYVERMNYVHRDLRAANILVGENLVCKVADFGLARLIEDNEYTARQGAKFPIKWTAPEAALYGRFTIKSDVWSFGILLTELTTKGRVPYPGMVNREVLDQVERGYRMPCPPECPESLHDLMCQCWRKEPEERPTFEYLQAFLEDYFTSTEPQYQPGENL
Protocol: as §1, §2, §3

SMILES | inhibition at 0.1 µM (BRAF) | inhibition at 0.1 µM (EGFR (ErbB1)) | inhibition at 0.1 µM (FGFR2) | inhibition at 0.1 µM (KDR (VEGFR2)) | EC50 (A549 cell line) | EC50 (HeLa cell line; 100 nM < EC50 < 1 μM) | EC50 (HepG2 cell line; EC50 ≧ 1 μM) | EC50 (MDA-MB-231 cell line) | EC50 (HeLa cell line; EC50 ≧ 1 μM) | inhibition at 0.1 µM (PDGFRA (PDGFR alpha)) | inhibition at 0.1 µM (SRC) | EC50 (HepG2 cell line; 100 nM < EC50 < 1 μM) | EC50 (HUVEC cells; 100 nM < EC50 < 1 μM) | EC50 (HUVEC cells; EC50 ≧ 1 μM)
COC(=O)c1cc2cc(CCc3cc(NC(=O)Nc4cccc(C(F)(F)F)c4)ccc3C)cnc2[nH]1 [OR0918, 5-(2-{2-Methyl-5-[3-(3-trifluoromethyl-phenyl)-ureido]-phenyl}-ethyl)-1H-pyrrolo[2,3-b]pyridine-2-carboxylic acid methyl ester] | < 50% | < 50% | < 50% | < 50% | – | – | ≥ 1 µM | – | – | ≥ 50% | < 50% | – | – | ≥ 1 µM
COC(=O)c1cc2cc(CCc3cccc(NC(=O)c4ccc(CN5CCC(N(C)C)C5)c(C(F)(F)F)c4)c3)cnc2[nH]1 (stereo not shown) [OR0922, 5-(2-{5-[4-(3-Dimethylamino-pyrrolidin-1-ylmethyl)-3-trifluoromethyl-benzoylamino]-phenyl}-ethyl)-1H-pyrrolo[2,3-b]pyridine-2-carboxylic acid methyl ester] | < 50% | ≥ 50% | ≥ 50% | ≥ 50% | – | – | ≥ 1 µM | – | – | – | – | – | 0.1 to 1 µM | –
CCN(CC)CCNC(=O)c1c(C)[nH]c(/C=C2\C(=O)Nc3ccc(F)cc32)c1C [Sunitinib, reference compound] | – | – | – | – | – | – | – | – | – | – | – | – | – | ≥ 1 µM
COC(=O)c1cc2cc(CCc3cc(NC(=S)c4ccc(CN5CCN(C)CC5)cc4)ccc3C)cnc2[nH]1 [OR0969, 5-(2-{2-Methyl-5-[4-(4-methyl-piperazin-1-ylmethyl)-thiobenzoylamino]-phenyl}-ethyl)-1H-pyrrolo[2,3-b]pyridine-2-carboxylic acid methyl ester] | < 50% | ≥ 50% | ≥ 50% | ≥ 50% | – | – | ≥ 1 µM | – | – | – | – | – | – | ≥ 1 µM
CC(=O)c1cc2cc(CCc3cc(NS(=O)(=O)c4cccc(C(F)(F)F)c4)ccc3C)cnc2[nH]1 [OR0967, N-{3-[2-(2-Acetyl-1H-pyrrolo[2,3-b]pyridin-5-yl)-ethyl]-4-methyl-phenyl}-3-trifluoromethyl-benzenesulfonamide] | < 50% | < 50% | < 50% | < 50% | – | – | ≥ 1 µM | – | – | < 50% | < 50% | – | – | ≥ 1 µM
COC(=O)c1cc2cc(CCc3cc(NC(=O)c4ccc(CN5CCN(C)CC5)c(F)c4)ccc3C)cnc2[nH]1 [OR0920, 5-(2-{5-[3-Fluoro-4-(4-methyl-piperazin-1-ylmethyl)-benzoylamino]-2-methyl-phenyl}-ethyl)-1H-pyrrolo[2,3-b]pyridine-2-carboxylic acid methyl ester] | ≥ 50% | ≥ 50% | ≥ 50% | ≥ 50% | – | – | – | – | – | – | – | 0.1 to 1 µM | – | ≥ 1 µM

More lines, main results first:

inhibition at 0.1 µM (BRAF) | inhibition at 0.1 µM (EGFR (ErbB1)) | inhibition at 0.1 µM (FGFR2) | inhibition at 0.1 µM (KDR (VEGFR2)) | EC50 (A549 cell line) | EC50 (HeLa cell line; 100 nM < EC50 < 1 μM) | EC50 (HepG2 cell line; EC50 ≧ 1 μM) | EC50 (MDA-MB-231 cell line) | EC50 (HeLa cell line; EC50 ≧ 1 μM) | inhibition at 0.1 µM (PDGFRA (PDGFR alpha)) | inhibition at 0.1 µM (SRC) | EC50 (HepG2 cell line; 100 nM < EC50 < 1 μM) | SMILES | EC50 (HUVEC cells; 100 nM < EC50 < 1 μM) | EC50 (HUVEC cells; EC50 ≧ 1 μM)
< 50% | ≥ 50% | ≥ 50% | ≥ 50% | ≥ 1 µM | 0.1 to 1 µM | ≥ 1 µM | ≥ 1 µM | – | – | – | – | COC(=O)c1cc2cc(CCc3ccc(C)c(NC(=O)c4ccc(CN5CCC(N(C)C)C5)c(C(F)(F)F)c4)c3)cnc2[nH]1 (stereo not shown) [OR1044, 5-(2-{5-[4-(3-Dimethylamino-pyrrolidin-1-ylmethyl)-3-trifluoromethyl-benzoylamino]-4-methyl-phenyl}-ethyl)-1H-pyrrolo[2,3-b]pyridine-2-carboxylic acid methyl ester] | 0.1 to 1 µM | –
< 50% | ≥ 50% | ≥ 50% | ≥ 50% | – | – | – | – | – | – | – | – | Cc1ccc(NC(=O)c2ccc(CN3CCN(C)CC3)c(C(F)(F)F)c2)cc1CCc1cnc2[nH]c(C(=O)O)cc2c1 [OR1054, 5-(2-{2-Methyl-5-[4-(4-methyl-piperazin-1-ylmethyl)-3-trifluoromethyl-benzoylamino]-phenyl}-ethyl)-1H-pyrrolo[2,3-b]pyridine-2-carboxylic acid] | – | –
– | – | – | – | ≥ 1 µM | – | ≥ 1 µM | ≥ 1 µM | ≥ 1 µM | – | – | – | COC(=O)c1cc2cc(C=Cc3cccc(C(=O)Nc4cccc(C(F)(F)F)c4)c3)cnc2[nH]1 [OR1046, 5-{2-[3-(3-Trifluoromethyl-phenylcarbamoyl)-phenyl]-vinyl}-1H-pyrrolo[2,3-b]pyridine-2-carboxylic acid methyl ester] | – | ≥ 1 µM
< 50% | < 50% | < 50% | < 50% | – | – | ≥ 1 µM | – | – | < 50% | < 50% | – | COC(=O)c1cc2cc(CCc3cccc(NC(=O)c4ccc5[nH]nnc5c4)c3)cnc2[nH]1 [OR0977, 5-(2-{3-[(1H-Benzotriazole-5-carbonyl)-amino]-phenyl}-ethyl)-1H-pyrrolo[2,3-b]pyridine-2-carboxylic acid methyl ester] | – | ≥ 1 µM
< 50% | < 50% | < 50% | < 50% | – | – | ≥ 1 µM | – | – | < 50% | < 50% | – | COC(=O)c1cc2cc(CCc3cccc(NC(=O)c4cc[nH]c4)c3)cnc2[nH]1 [OR0976, 5-(2-{3-[(1H-Pyrrole-3-carbonyl)-amino]-phenyl}-ethyl)-1H-pyrrolo[2,3-b]pyridine-2-carboxylic acid methyl ester] | – | ≥ 1 µM
< 50% | < 50% | < 50% | < 50% | – | – | – | – | – | ≥ 50% | < 50% | – | COC(=O)c1cc2cc(CCc3cc(NC(=O)c4ccccc4OC)ccc3Cl)cnc2[nH]1 [OR1064, 5-{2-[2-Chloro-5-(2-methoxy-benzoylamino)-phenyl]-ethyl}-1H-pyrrolo[2,3-b]pyridine-2-carboxylic acid methyl ester] | – | –
≥ 50% | < 50% | < 50% | ≥ 50% | – | – | ≥ 1 µM | – | – | ≥ 50% | ≥ 50% | – | COC(=O)c1cc2cc(CCc3cccc(NC(=O)c4cncc(C(F)(F)F)c4)c3)cnc2[nH]1 [OR0981, 5-(2-{3-[(5-Trifluoromethyl-pyridine-3-carbonyl)-amino]-phenyl}-ethyl)-1H-pyrrolo[2,3-b]pyridine-2-carboxylic acid methyl ester] | – | ≥ 1 µM
< 50% | < 50% | < 50% | ≥ 50% | – | – | ≥ 1 µM | – | – | ≥ 50% | < 50% | – | COC(=O)c1cc2cc(CCc3cccc(NC(=O)c4ccc5[nH]ccc5c4)c3)cnc2[nH]1 [OR0978, 5-(2-{3-[(1H-Indole-5-carbonyl)-amino]-phenyl}-ethyl)-1H-pyrrolo[2,3-b]pyridine-2-carboxylic acid methyl ester] | – | ≥ 1 µM
